“And” between values parts separate entries of the source, which are not always exact repeats. Equal values may be shown once. Read-outs that look alike come from different tables or passages of the source.
Tests used:
SARS-CoV-2 = test: microbe, parasite or virus in culture; assay type: cell-based
in vitro = details: African green monkey
[1] = system: HCC1937 triple negative breast cancer cell line; test: Luminescent cell viability assay (CellTiter glo), subtype-specific breast cancer cell lines; assay type: cell-based
[2] = system: MDA-MB-231 triple negative breast cancer cell line; test: as above; assay type: cell-based; details: for IC50: MDA-MB-231, triple negative breast cancer cell line; for IC50 fold lower than Cisplatin: MDA-MB-231 cells
[3] = system: ZR-75-1 hormone-positive breast cancer cell line; test: as above; assay type: cell-based; details: for IC50: ZR-75-1, hormone-positive breast cancer cell line; for IC50 fold lower than Tamoxifen: ZR-75-1 cells
[4] = system: MDA-MB-453 HER2-positive breast cancer cell line; test: as above; assay type: cell-based
[5] = system: HCC1419 HER2-positive breast cancer cell line; test: as above; assay type: cell-based; details: for IC50: HCC1419, HER2-positive breast cancer cell line; for IC50 fold lower than Herceptin: HCC1419 cells
[6] = system: MCF7/PR Paclitaxel resistant MCF7 cell line; test: as above; assay type: cell-based
[7] = system: MCF-7 breast cancer cell line; details: value from literature, read-out: IC50 (positive control); cited from earlier work
[8] = system: MDA-MB-231 breast cancer cell line; details: value from literature, read-out: IC50 (positive control); cited from earlier work
[9] = system: PANC-1 pancreatic cancer cell line; test: Inhibition of cancer cell proliferation, CCK-8 assay; assay type: cell-based
[10] = system: MIAPACA-2 pancreatic cancer cell line; test: as above; assay type: cell-based
[11] = system: A-549 non-small cell lung cancer cell line; test: as above; assay type: cell-based
[12] = system: H-1299 non-small cell lung cancer cell line; test: as above; assay type: cell-based
[13] = system: MCF-7 breast cancer cell line; test: as above; assay type: cell-based
[14] = system: MDA-MB-231 breast cancer cell line; test: as above; assay type: cell-based
[15] = system: Hep-3B liver cancer cell line; test: as above; assay type: cell-based
[16] = system: Huh-7 liver cancer cell line; test: as above; assay type: cell-based
[17] = Solubility of niclosamide in pH 7 buffer solution (HPLC); assay type: physicochemical
Experimental: A pH 7 solution prepared by mixing 0.1 N potassium phosphate and 0.1 N sodium hydroxide was used as the pH 7 buffer solution. […] After 1 hour of stirring, 5 ml of a supernatant was filtered with a 0.45 μm PVDF filter, and then the amount of dissolved niclosamide was evaluated using the filtered solution as a sample.

[18] = assay type: in vitro ADME; details: PAMPA
Experimental: The permeability of an artificial membrane (barrier membrane from PermeaPad, 25 mm) to niclosamide of the cocrystal of Example 17 of the present invention was evaluated using the side-bi-side cell system, and compared with that of the niclosamide single material. 5 ml of an FeSSIF solution (37° C.) at pH 6.5 added with 3% (w/w) Kolliphor ELP was taken and contained in a donor cell, and […] of each sample was weighed and administered to the donor cell. 5 ml of a PBS solution of pH 7.4 added with 20% (w/w) HP-β-CD was added to the acceptor cell, the test was started, and 200 μl of the solution was taken 5 times from the acceptor cell every predetermined time and used as the test solution. Then, the acceptor cell was filled with the PBS solution of pH 7.4 added with 1 ml of 20% (w/w) HP-p-CD, and the total volume was maintained at 5 ml.

[19] = Artificial membrane permeability of camostat, side-bi-side cell system (GIT-0-Lipid on PVDF membrane); assay type: in vitro ADME
Experimental: As an artificial membrane, 200 μl of a GIT-0-Lipid solution was used by dropping on the center of a 25 mm hydrophobic PVDF membrane. 5 ml of a 37° C. pH 5.0 FeSSIF solution was taken and contained in a donor cell, and 20 mg of the sample was weighed and administered to the donor cell. The test was started after adding 5 ml of an ethyl alcohol. pH 7.4 PBS buffer (1:9, v/v) solution to an acceptor cell, and 200 μl of the solution was taken five times from the acceptor cell every predetermined time and used as a test solution. Then, the acceptor cell was filled with 1 ml of the ethyl alcohol: pH 7.4 PBS buffer (1:9, v/v) solution to maintain a total volume of 5 ml.

[20] = system: PANC-1 pancreatic cancer cell line; details: value from literature, read-out: IC50 (positive control); cited from earlier work
[21] = system: MIAPACA-2 pancreatic cancer cell line; details: value from literature, read-out: IC50 (positive control); cited from earlier work
[22] = system: Hep-3B liver cancer cell line; details: value from literature, read-out: IC50 (positive control); cited from earlier work
[23] = system: Huh-7 liver cancer cell line; details: value from literature, read-out: IC50 (positive control); cited from earlier work
[24] = Severe acute respiratory syndrome coronavirus 2, SARS-CoV-2 in Vero cells, 24 hours after infection, read-out: IC50
[25] = SARS-CoV-2 in Vero cells, 24 hours after infection, read-out: IC50

CCN(CC)CCCC(C)Nc1ccnc2cc(Cl)ccc12 (stereo not shown) [Chloroquine]
IC50 (SARS-CoV-2; [24]): 7.47 µM
CC50 (in vitro): > 150 µM

N.N.[Cl][Pt][Cl] [Cisplatin, reference compound]
IC50 [1]: 12.3 µM
IC50 [2]: ≥ 25 µM

CC(=O)O[C@@]12CO[C@@H]1C[C@H](O)[C@@]1(C)C(=O)[C@H](O)C3=C(C)[C@@H](OC(=O)[C@H](O)[C@@H](NC(=O)OC(C)(C)C)c4ccccc4)C[C@@](O)([C@@H](OC(=O)c4ccccc4)[C@H]21)C3(C)C [Docetaxel, reference compound]
IC50 ([3]; Homo sapiens): 24.2 µM
IC50 ([4]; Homo sapiens): ≥ 25 µM
IC50 ([5]; Homo sapiens): ≥ 25 µM
IC50 ([1]; Homo sapiens): ≥ 25 µM
IC50 ([2]; Homo sapiens): ≥ 25 µM
IC50 ([6]; Homo sapiens): 11.4 µM
IC50 [7]: 0.763 µM
IC50 [8]: 0.635 µM

CN(C)C(=O)COC(=O)Cc1ccc(OC(=O)c2ccc(NC(=N)N)cc2)cc1.O=C(Nc1ccc([N+](=O)[O-])cc1Cl)c1cc(Cl)ccc1O [Example 1]
IC50 ([9]; PANC-1, 48 hours drug treatment): 0.0993 µM
IC50 fold lower than gemcitabine ([9]; PANC-1 cell line): 432 fold
IC50 fold lower than gemcitabine ([10]; MIAPACA-2 cell line): 127 fold
IC50 ([10]; MiaPaCa-2, 48 hours drug treatment): 0.729 µM
IC50 ([11]; A-549, 48 hours drug treatment): 0.976 µM
IC50 fold lower than gefitinib ([11]; A-549 cells): 13 fold
IC50 ([12]; H-1299, 48 hours drug treatment): 0.381 µM
IC50 fold lower than gefitinib ([12]; H-1299 cells): 45 fold
IC50 ([13]; MCF-7, 48 hours drug treatment): 0.428 µM
IC50 fold lower than docetaxel ([13]; MCF-7 cells): 1.7 fold
IC50 ([14]; MDA-MB-231, 48 hours drug treatment): 0.126 µM
IC50 fold lower than docetaxel ([14]; MDA-MB-231 cells): 5 fold
IC50 fold lower than Sorafenib ([15]; Hep-3B cells): 297 fold
IC50 ([15]; Hep-3B, 48 hours drug treatment): 0.0413 µM
IC50 ([16]; Huh-7, 48 hours drug treatment): 0.134 µM
IC50 fold lower than Sorafenib ([16]; Huh-7 cells): 44 fold
IC50 [3]: 5.37 µM
IC50 fold lower than Tamoxifen [3]: 1.7 fold
IC50 [4]: 7.46 µM
IC50 [5]: 1.27 µM
IC50 fold lower than Herceptin [5]: 19 fold
IC50 [1]: 4.98 µM
IC50 [2]: 1.75 µM
IC50 fold lower than Cisplatin [2]: 14 fold
IC50 [6]: 5.69 µM
SI (selectivity index, CC50/IC50) (SARS-CoV-2; SARS-CoV-2 in Vero cells): 306
IC50 (SARS-CoV-2; [25]): 0.16 µM
CC50 (Vero cells): > 50 µM

CN(C)C(=O)COC(=O)Cc1ccc(OC(=O)c2ccc(NC(=N)N)cc2)cc1.O=C(Nc1ccc([N+](=O)[O-])cc1Cl)c1cc(Cl)ccc1O [Example 17]
pH 7 solubility [17]: 55.2 μg/ml
Cumulative permeation amount of drug [18]: 2.03 μg/ml/cm^2/h
cumulative permeation amount of niclosamide, fold better than niclosamide single material [18]: 1.72 fold
IC50 [3]: 6.29 µM
IC50 fold lower than Tamoxifen [3]: 1.4 fold
IC50 [4]: 7.48 µM
IC50 [5]: 1.5 µM
IC50 fold lower than Herceptin [5]: 16 fold
IC50 [1]: 4.55 µM
IC50 [2]: 2.25 µM
IC50 fold lower than Cisplatin [2]: 11 fold
IC50 [6]: 5.82 µM
SI (selectivity index, CC50/IC50) (SARS-CoV-2; SARS-CoV-2 in Vero cells): 313
IC50 (SARS-CoV-2; [25]): 0.16 µM
CC50 (Vero cells): > 50 µM

CN(C)C(=O)COC(=O)Cc1ccc(OC(=O)c2ccc(NC(=N)N)cc2)cc1.O=C(Nc1ccc([N+](=O)[O-])cc1Cl)c1cc(Cl)ccc1O [Example 21]
Cumulative permeation amount J ([19]; camostat, donor pH 5.0 FeSSIF 37° C., acceptor ethyl alcohol:pH 7.4 PBS (1:9)): 876.29 μg/ml/cm^2/h and 876.26 μg/ml/cm^2/h
cumulative permeation amount of camostat, fold better than camostat single material ([19]; cocrystal vs camostat single material): 1.56 fold

Nc1ccn([C@@H]2O[C@H](CO)[C@@H](O)C2(F)F)c(=O)n1 [Gemcitabine]
IC50 [20]: 42.9 µM
IC50 [21]: 92.7 µM

Cc1cccc(C)c1OCC(=O)N[C@@H](Cc1ccccc1)[C@@H](O)C[C@H](Cc1ccccc1)NC(=O)[C@H](C(C)C)N1CCCNC1=O [Lopinavir]
IC50 fold higher than the IC50 of the cocrystal (SARS-CoV-2; SARS-CoV-2 in Vero cells): about 64.38 fold
SI (selectivity index, CC50/IC50) (SARS-CoV-2; SARS-CoV-2 in Vero cells): 4.85
IC50 (SARS-CoV-2; [24]): 10.3 µM
CC50 (in vitro): > 50 µM

O=C(Nc1ccc([N+](=O)[O-])cc1Cl)c1cc(Cl)ccc1O [Niclosamide]
pH 7 solubility [17]: hardly detected
pH 7 solubility ([17]; 1 h): <0.3 μg/ml
Cumulative permeation amount of drug ([18]; 4 mg/ml): 1.18 μg/ml/cm^2/h

CC(=O)O[C@H]1C(=O)[C@@]2(C)[C@H]([C@H](OC(=O)c3ccccc3)[C@]3(O)C[C@H](OC(=O)[C@H](O)[C@@H](NC(=O)c4ccccc4)c4ccccc4)C(C)=C1C3(C)C)[C@]1(OC(C)=O)CO[C@@H]1C[C@@H]2O [Paclitaxel, reference compound]
IC50 ([6]; Homo sapiens): 13.7 µM

CCC(CC)COC(=O)[C@H](C)N[P@](=O)(OC[C@H]1O[C@@](C#N)(c2ccc3c(N)ncnn23)[C@H](O)[C@@H]1O)Oc1ccccc1 [Remdesivir]
IC50 fold higher than the IC50 of the cocrystal (SARS-CoV-2; SARS-CoV-2 in Vero cells): about 21.75 fold
SI (selectivity index, CC50/IC50) (SARS-CoV-2; SARS-CoV-2 in Vero cells): 14.35
IC50 (SARS-CoV-2; Severe acute respiratory syndrome coronavirus 2, Vero, 24 h): 3.48 µM
CC50 (in vitro): > 50 µM

CNC(=O)c1cc(Oc2ccc(NC(=O)Nc3ccc(Cl)c(C(F)(F)F)c3)cc2)ccn1 [Sorafenib]
IC50 [22]: 12.3 µM
IC50 [23]: 6 µM

Reference: patent US12527762B2 (priority 2021, dated 2026)
